Structures are written as SMILES. Some results are limits rather than exact numbers.

Data set [1] deals with common carotid arteries after balloon injury. The experiment in a line: Neointimal hyperplasia in balloon-injured carotid artery animal model. In kind it is in vivo, Sprague-Dawley rats. As to conditions: LAB 10 mg/kg/day from 2 days prior to PTA, compared with placebo. From the text:
Two French Forgarty embolectomy catheters were inserted into white male Sprague-Dawley (300 g) through external carotid arteries, and blood vessels were intentionally damaged by moving catheters, which were swollen by adding a physiological saline solution, 3 times vertically within the common carotid thereby expanding blood vessels while shedding off the endothelial cells. A total of 30 rats were divided into 3 groups (10 rats/group) and used in this experiment: group 1 was not treated; group 2 was damaged with their blood vessels; and group 3 was treated with LAB and then damaged with their blood vessels. LAB (10 mg/kg/day) was injected intravenously for a period of 30 days (i.e., from 2 days prior to the blood vessel damage to 28 days after the blood vessel damage). The rats were sacrificed on the 28th day after the blood vessel damage by ablating carotid artery and it was fixed with 4% formaldehyde and then dyed with hematoxylineosin. The mid parts of the damaged blood vessel were cut into 2-4 parts and analyzed via computerized morphometry (SCN Image). […]
White Sprague-Dawley rats were damaged by using percutaneous transluminal angioplastyas (‘PTA’) as stated above. […] On the 2oth day after the surgery the rats were sacrificed and the Intima-Media Thickness (‘IMT’) was measured.

Another data set deals with Akt. Kind of data set: Western blot of Akt phosphorylation in VSMC induced by PDGF-BB. Format: cell-based, Sprague-Dawley rats. Here is the method: (§1) VSMC was washed with PBS and then dissolved in lysis buffer (25 mM Tris HCl, pH 7.4, 25 mM NaCl, 25 mM NaF, 25 mM sodium pyrophosphate, 1 mM sodium vanadate, 2.5 mM EDTA, 2.5 mM EGTA, 0.05% (wt/vol) Triton X-100, 0.5% (wt/vol) SDS, 0.5% (wt/vol) deoxycholate, 0.5% (wt/vol) Nonidet P-40, […], and 1 mM PMSF). The cells were collected and centrifuged at 13,000 rpm for 15 min and the protein concentration of the resulting supernatant was measured by Bradford assay. The proteins were denatured and were subjected to SDS-PAGE and then blotted onto nitrocellulose membranes. The membranes were placed in 5% (w/v) non-fat dry milk in TBS with 0.1% Tween20 (TBS-T) and then placed at room temperature for 3 hrs. The blots were placed at 4° C. along with anti-ERK1/2 or anti-Akt antibodies (Cell signaling Technologh, Berely. Mass., USA) for 16 hrs. The membranes were washed 4 times with TBS-T, added with anti-rabbit IgG antibody conjugated with horseradish peroxidase (1:2,000 diluent) and then placed at room temperature for 1 hr. The immunoreactive bands detected by ECL reagents were developed by Hyperfilm-ECL (Amersham Life Science, Little Chalfont, UK). The bands showing positive responses were quantitated by densitometry and then compared with that of control.
(§2) In FIG. 1B, it is shown that both U0126 (20 μM) and LY294002 (40 μM) inhibited activities of LDH and MTT induced by PDGF-BB. As a way to investigate the signal transduction pathway involved in VSMC proliferation induced by PDGF-BB, an experiment was conducted to examine whether PDGF-BB activates a relatively lower signal transduction pathway such as ERK1/2 and Akt.
A general note: A western blot detects proteins with antibodies after separation by electrophoresis.

Data set [2] deals with vascular smooth muscle cells. The experiment in a line: Cytotoxicity of LAB in VSMC. In kind it is cell-based, Sprague-Dawley rats. To be noted: LAB up to 30 μM. How it is done:
The VSMC was treated in a culture medium not containing serum for 24 hrs prior to treatment with PDGF-BB, and the reaction according to the presence or absence of PDGF-BB was analyzed after pretreating with LAB or other reagents.
To investigate whether LAB decreases the proliferation of VSMC induced by PDGF-BB an experiment was performed as follows. The VSMC was placed in a culture medium not containing serum for 24 hrs to inhibit cell proliferation, and then pretreated with LAB with various concentrations of 1, 5, 10, 20, 30 μM and treated with PDGF-BB for 24 hrs. The extent of VSMC proliferation was compared with that of control as stated above via LDH and MTT assays (FIG. 1).

A further data set deals with SD rats. Kind of data set: Acute toxicity due to oral administration in SD rats. Format: in vivo. Here is the method: (§3) Acute toxicity test was performed using 6 week old SPF SD rats. The SD rats were divided two per each group and each rat was orally administered once with LAB in the amount of 1 g/kg/1 mL, which was suspended in 0.5% methylcellulose. After the above administration, the rats were subjected to examination with regard to survival, clinical symptoms, change in body weight, and the like and also hematological examination, biochemical blood test. Further, autopsies were performed to observe abnormalities in abdominal organs.

Assay in data set [3]: as above
In kind it is in vivo. To be noted: SD, rat, in vivo, 1 g/kg; oral, single administration. Here is the method: as §3

The subject of data set [4] is vascular smooth muscle cells. Kind of data set: VSMC migration induced by PDGF-BB (modified Boyden chamber). To be noted: pretreated with LAB, various concentrations; 16 hrs. In kind it is cell-based, Sprague-Dawley rats. How it is done: The migration of VSMC with 8 μm of pores was measured by using modified Boyden chamber method [Brown C, Pan X, Hassid A. Nitric oxide and C-type atrial natriuretic peptide stimulate primary aortic smooth muscle cell migration via a cGMP-dependent mechanism: relationship to microfilament dissociation and altered cell morphology. Circ Res. Apr. 2 1999; 84(6):655-667], which utilizes collagen-coated transwell tissue culture inserts consisting of polycarbonate membrane. 3.0×10^6 cells/mL of the above vascular smooth muscle cells were allowed to float in a culture medium without serum, treated with LAB with various concentrations and then cultured at 37° C. for 30 min. Then, the cells were treated with either 0.5 mL DMEM without serum or 0.5 mL DMEM without serum along with PDGF-BB 10 ng/mL and then placed in the lower part of a chamber. 100 μL of the folating materials of the above cells (final 3.0×10^5 cells/well) was added to the upper part of the chamber and cultured at 37° C. for 16 hrs. The cells were then fixed, dyed with hematoxylin, and filters were dried and developed.
It is known that […] plays an important role in proliferation of VSMC as well as development of atherosclerosis. To investigate whether LAB decreases the migration of VSMC induced by PDGF-BB, an experiment was performed as follows by using the aforementioned modified Boyden chamber method.

The subject of another data set is ERK1/2. Kind of data set: Western blot of ERK1/2 phosphorylation in VSMC induced by PDGF-BB. Format: cell-based, Sprague-Dawley rats. How it is done:
as §1, §2

One may read the LD50 as the dose expected to kill half of the subjects tested. As to `O=C(/C=C/c1ccc(O)c2c1[C@H](C(=O)O[C@H](Cc1ccc(O)c(O)c1)C(=O)[O-])[C@@H](c1ccc(O)c(O)c1)O2)O[C@H](Cc1ccc(O)c(O)c1)C(=O)[O-].[Mg+2]` [LAB, lithospermate B], the “increase in Intima-Media Thickness (IMT)” value in data set [1] is “much low”. In addition, in the data set with Akt (30 μM LAB, 20 mM NAC, 40 μM LY294002, 1 h, then PDGF-BB 10 min, FIG. 4C), the “decrease of Akt phosphorylation” value came out at 8 folds. Moreover, in the data set with Akt (LAB 1, 5, 10, 20, 30 μM for 1 h, PDGF-BB 10 min, FIG. 4B), the “phosphorylation of Akt due to PDGF-BB” value is “inhibits”. Also, in the data set on Akt (PDGF-BB 10 ng/mL), the “most effective concentration, inhibition of Akt phosphorylation” value worked out at 30 µM. For the same compound, the “adverse reaction in VSMC” value in data set [2] (highest concentration) is on record as “no adverse reaction observed”. Moreover, the cytotoxic activities entry in data set [2] (data not shown) is on record as “no cytotoxic activities observed”. Further, the “dose without toxicity to rats” value in the data set with SD rats (oral, single administration) is on record as “up to 500 mg/kg”. Also, in the data set with SD rats (single oral dose 1 g/kg in 0.5% methylcellulose), the survival result is listed as “all experimental rats survived”. Moreover, the “clinical symptoms, toxicities and other abnormalities” value with SD rats (single oral dose 1 g/kg, body weight, hematology, blood biochemistry, autopsy) is “no abnormal clinical symptoms, no toxicities and other abnormalities”. In data set [3], this compound registered a median lethal dose (LD50) of over 500 mg/kg. Moreover, the “migration of VSMC induced by PDGF-BB” value in data set [4] is recorded as “decreased in proportion to the concentration”. Moreover, the “decrease of ERK1/2 phosphorylation” value in the data set on ERK1/2 (30 μM LAB, 20 mM NAC, 1 h, then PDGF-BB 10 min, FIG. 5C) is recorded as 0.8 fold. In addition, in the data set on ERK1/2 (LAB 1, 5, 10, 20, 30 μM for 1 h, PDGF-BB 10 min, FIG. 5B), the “phosphorylation of ERK1/2 due to PDGF-BB” value is on record as “inhibits”. Also, in the data set with ERK1/2 (PDGF-BB 10 ng/mL), the “most effective concentration, inhibition of ERK1/2 phosphorylation” value worked out at 30 µM.

Source of the values: patent US20090227671A1, “Prevention and treatment of atherosclerosis with lithospermate B” (Industry-Academic Cooperation Foundation, priority 2005, published 2009).
